Counter-ions that a name gives are not always drawn.
System: voltage-dependent calcium channels (cerebral cortex synaptosome)
Test: Measurement of voltage-dependent calcium channel activity by the use of a fluorescent pigment (fura 2)
Format: cell-based
Conditions: rat cerebral cortex synaptosome, fura 2, KCl stimulation, compound incubated 10 minutes
Protocol: Measurement of Voltage-dependent Calcium Channel Activity by the use of a Fluorescent Pigment (fura 2)
Cerebral cortexes were removed from cut rat brains and disrupted roughly with scissors. These were introduced into a homogenizer, homogenized in 0.3 M saccharose and centrifuged at 4° C. (1,500 g×10 min). The resulting supernatant was further centrifuged at 4° C. (10,000 g×20 min). The resulting precipitates were suspended in 0.3 M saccharose. The suspension was layered on 0.8 M saccharose and centrifuged (10,000 g×30 min.).
4 μM fura 2/AM (Dojin Ltd.) was suspended in solution A to prepare a loading solution. To the synaptosome solution prepared in the method described above was added an equal volume of the loading solution, and the mixture was incubated for 40 minutes at room temperature.
As comparative and control compound, verapamil hydrochloride was used.

Structure (SMILES) | IC50
CC(C)(O)C(C#N)(CCCN1CCN(CCOc2ccc(F)cc2)CC1)c1ccccc1 (stereo not drawn) [Example 81, 1-[(4-Cyano-5-hydroxy-5-methyl-4-phenyl)hexyl]-4-[2-(4-fluorophenoxyl)ethyl]piperazine] | > 16 µM
CC(C)C(C#N)(CCCN1CCN(C(=O)COc2ccc(F)cc2)CC1)c1ccccc1 (stereo not drawn) [Example 61, 1-[(4-Cyano-5-methyl-4-phenyl)hexyl]-4-[2-(4-fluorophenoxy)acetyl]piperazine] | 11 µM
CC(C)C(C#N)(CCCN1CCN(CCOc2cccc(-c3cccnc3)c2)CC1)c1ccccc1 (stereo not drawn) [Example 107, 1-[(4-Cyano-5-methyl-4-phenyl)hexyl]-4-{2-[3-(3-pyridyl)phenoxy]ethyl}piperazine] | 4.1 µM
CC(C)C(C#N)(CCCN1CCN(CCOc2ccc(-c3cccnc3)cc2)CC1)c1ccccc1 (stereo not drawn) [Example 106, 1-[(4-Cyano-5-methyl-4-phenyl)hexyl]-4-{2-[4-(3-pyridyl)phenoxy]ethyl}piperazine] | 7 µM
CCC(CN1CCN(CCCC(C#N)(c2ccccc2)C(C)C)CC1)Oc1ccc(F)cc1 (stereo not drawn) [Example 104, 1-[(4-Cyano-5-methyl-4-phenyl)hexyl]-4-[2-(4-fluorophenoxy)butyl]piperazine] | 2.2 µM
CC(C)C(C#N)(CCCN1CCN(CCOc2ccc(F)cc2O)CC1)c1ccccc1 (stereo not drawn) [Example 84, 1-[(4-Cyano-5-methyl-4-phenyl)hexyl]-4-[2-(2-hydroxy-4-fluorophenoxy)ethyl]piperazine] | 6 µM
CC(C)C(C#N)(CCCN1CCN(CCOc2ccc(F)cc2)CC1)c1ccc(C=NO)cc1 (stereo not drawn) [Example 14, 1-[4-Cyano-5-methyl-4-(4-hydroxyiminomethylphenyl)hexyl]-4-[2-(4-fluorophenoxy)ethyl]piperazine] | 8.7 µM
CC(C)C(C#N)(CCCN1CCN(CCOc2cccnc2)CC1)c1ccccc1 (stereo not drawn) [Example 100, 1-[(4-Cyano-5-methyl-4-phenyl)hexyl]-4-[2-(3-pyridyloxy)ethyl]piperazine] | > 16 µM
CC(C)C(C#N)(CCCN1CCN(CCCCOc2ccccc2)CC1)c1ccccc1 (stereo not drawn) [Example 6, 1-[(4-Cyano-5-methyl-4-phenyl)hexyl]-4-(4-phenoxybutyl)piperazine] | 2.7 µM
CC(C)CC(C#N)(CCCN1CCN(CCOc2ccc(F)cc2)CC1)c1ccccc1 (stereo not drawn) [Example 30, 1-[(4-Cyano-6-methyl-4-phenyl)hepthyl]-4-[2-(4-fluorophenoxy)ethyl]piperazine] | 2.9 µM
CC(C)C(C#N)(CCCN1CCN(CCOc2ccccc2-c2cccnc2)CC1)c1ccccc1 (stereo not drawn) [Example 113, 1-[(4-Cyano-5-methyl-4-phenyl)hexyl]-4-{2-[2-(3-pyridyl)phenoxy]ethyl}piperazine] | 4.5 µM
CC(C)C(C#N)(CCCN1CCN(CCOc2cccc(F)c2)CC1)c1ccccc1 (stereo not drawn) [Example 32, 1-[(4-Cyano-5-methyl-4-phenyl)hexyl]-4-[2-(3-fluorophenoxy)ethyl]piperazine] | 6.2 µM
CC(C)C(C#N)(CCCN1CCN(CCN(C)S(=O)(=O)c2ccc(F)cc2)CC1)c1ccccc1 (stereo not drawn) [Example 69, 1-[(4-cyano-5-methyl-4-phenyl)hexyl]-4-[2-(N-methyl-4-fluorobenzenesulfonylamino)ethyl]piperazine] | 9.2 µM
CC(CCC(C#N)(c1ccccc1)C(C)C)N1CCN(CCOc2ccc(F)cc2)CC1 (stereo not drawn) [Example 97, 1-[{2-(5-Cyano-6-methyl-5-phenyl)heptyl}]-4-[2-(4-fluorophenoxy)ethyl]piperazine] | 3.9 µM
CC(C)C(C#N)(CCCN1CCN(CCOc2ccccc2F)CC1)c1ccccc1 (stereo not drawn) [Example 31] | 9.3 µM
CC(C)C(C#N)(CCCN1CCN(CC(=O)Nc2ccc(F)cc2)CC1)c1ccccc1 (stereo not drawn) [Example 65, 1-[(4-Cyano-5-methyl-4-phenyl)hexyl]-4-[N-(4-fluorophenyl)carbamoylmethyl]piperazine] | > 16 µM
CC(C)C(C#N)(CCCN1CCN(CCOc2ccc3c(c2)OCO3)CC1)c1ccccc1 (stereo not drawn) [Example 94, 1-[(4-Cyano-5-methyl-4-phenyl)hexyl]-4-{2-[3,4-(methylenedioxy)phenoxy]ethyl}piperazine] | 6.1 µM
CC(C)C(C#N)(CCC(=O)N1CCN(CCOc2ccc(F)cc2)CC1)c1ccccc1 (stereo not drawn) [Example 122, 1-[(4-Cyano-5-methyl-4-phenyl)hexanoyl]-4-[2-(4-fluorophenoxy)ethyl]piperazine] | 12 µM
CC(C)C(C#N)(CCCN1CCN(CCOc2ccc(F)cc2OCCO)CC1)c1ccccc1 (stereo not drawn) [Example 87, 1-[(4-Cyano-5-methyl-4-phenyl)hexyl]-4-[2-(2-hydroxyethoxy-4-fluorophenoxy)ethyl]piperazine] | > 16 µM
CC(C)C(C#N)(CCCN1CCN(CCOc2ccc(F)cc2)CC1)c1ccc([N+](=O)[O-])cc1 (stereo not drawn) [Example 16, 1-[4-Cyano-5-methyl-4-(4-nitrophenyl)hexyl]-4-[2-(4-fluorophenoxy)ethyl]piperazine] | 4.8 µM
CC(C)C(C#N)(CCCN1CCN(CCOc2ccc(F)cc2)CC1)c1ccc(N)cc1 (stereo not drawn) [Example 17, 1-[4-Cyano-5-methyl-4-(4-aminophenyl)hexyl]-4-[2-(4-fluorophenoxy)ethyl]piperazine] | > 16 µM
CCCC(CCC(C#N)(c1ccccc1)C(C)C)N1CCN(CCOc2ccc(F)cc2)CC1 (stereo not drawn) [Example 98, 1-{[4-(7-Cyano-8-methyl-7-phenyl)nonyl]}-4-[2-(4-fluorophenoxy)ethyl]piperazine] | > 16 µM
Cc1cccc(/C=C/c2ccccc2OCCN2CCN(CCCC(C#N)(c3ccccc3)C(C)C)CC2)n1 (stereo not drawn) [Example 118, 1-[(4-Cyano-5-methyl-4-phenyl)hexyl]-4-{2-[2-(6-methyl-2-pyridyl)vinylphenoxyl]ethyl}piperazine] | 6.4 µM
N#CC(F)(CCCN1CCN(CCOc2ccc(F)cc2)CC1)c1ccccc1 (stereo not drawn) [Example 85, 1-[(4-Cyano-4-fluoro-4-phenyl)butyl]-4-[2-(4-fluorophenoxy)ethyl]piperazine] | 16 µM

Second part, the compound after the results:

IC50 | Structure (SMILES)
2.7 µM | CC(C)C(C#N)(CCCN1CCN(CCOc2ccc(F)cc2)CC1)c1ccc(Cl)c(Cl)c1 (stereo not drawn) [Example 37, 1-{[4-Cyano-5-methyl-4-(3,4-dichlorophenyl)hexyl]}-4-[2-(4-fluorophenoxy)ethyl]piperazine]
4 µM | CC(C)C(C#N)(CCCN1CCN(CCCOc2ccc(F)cc2)CC1)c1ccccc1 (stereo not drawn) [Example 2, 1-[(4-Cyano-5-methyl-4-phenyl)hexyl]-4-[3-(4-fluorophenoxy)propyl]piperazine]
5.7 µM | CC(C)C(C#N)(CCN1CCCN(CCOc2ccc(F)cc2)CC1)c1ccccc1 (stereo not drawn) [Example 4, 1-[(3-Cyano-4-methyl-3-phenyl)pentyl]-4-[2-(4-fluorophenoxy)ethyl]homopiperazine]
2.7 µM | CC(C)C(C#N)(CCCN1CCN(CCOc2ccc(C(F)(F)F)cc2)CC1)c1ccccc1 (stereo not drawn) [Example 102, 1-[(4-Cyano-5-methyl-4-phenyl)hexyl]-4-[2-(4-trifluoromethylphenoxy)ethyl]piperazine]
3.2 µM | CC(C)C(C#N)(CCCN1CCN(CCOc2cccc(-c3ccsc3)c2)CC1)c1ccccc1 (stereo not drawn) [Example 117, 1-[(4-Cyano-5-methyl-4-phenyl)hexyl]-4-{2-[3-(3-thienyl)phenoxy]ethyl}piperazine]
> 16 µM | CC(C)C(C#N)(CCCN1CCN(CCOc2ncccn2)CC1)c1ccccc1 (stereo not drawn) [Example 112, 1-[(4-Cyano-5-methyl-4-phenyl)hexyl]-4-[2-(2-pyrimidinyloxy)ethyl]piperazine]
6.8 µM | CC(C)C(C#N)(CCCN1CCN(CCOc2cccc(/C=C/C#N)c2)CC1)c1ccccc1 (stereo not drawn) [Example 121, 1-[(4-Cyano-5-methyl-4-phenyl)hexyl]-4-{2-[3-(2-cyanovinyl)phenoxy]ethyl}piperazine]
9.6 µM | COc1ccc(OCCN2CCN(CCCC(C#N)(c3ccccc3)C(C)C)CC2)cc1 (stereo not drawn) [Example 39, 1-[(4-Cyano-5-methyl-4-phenyl)hexyl]-4-[2-(4-methoxyphenoxy)ethyl]piperazine]
2.5 µM | CC(C)C(C#N)(CCCN1CCN(CCOc2cccc3ccccc23)CC1)c1ccccc1 (stereo not drawn) [Example 103, 1-[(4-Cyano-5-methyl-4-phenyl)hexyl]-4-[2-(1-naphthyloxy)ethyl]piperazine]
13 µM | CC(C)C(C#N)(CCCN1CCN(CCOc2ccc(F)cc2)CC1)c1ccc(O)cc1 (stereo not drawn) [Example 83, 1-[4-Cyano-5-methyl-4-(4-hydroxyphenyl)hexyl]-4-[2-(4-fluorophenoxy)ethyl]piperazine]
7.7 µM | CC(C)C(C#N)(CCCN1CCN(CCOc2cccc(C#N)c2)CC1)c1ccccc1 (stereo not drawn) [Example 119, 1-[(4-Cyano-5-methyl-4-phenyl)hexyl]-4-[2-(3-cyanophenoxy)ethyl]piperazine]
7.5 µM | CC(C)C(C#N)(CCCN1CCN(CCNc2ccc(F)cc2)CC1)c1ccccc1 (stereo not drawn) [Example 51, 1-[(4-Cyano-5-methyl-4-phenyl)hexyl]-4-[2-(4-fluorophenylamino)ethyl]piperazine]
4.6 µM | CSc1ccc(OCCN2CCN(CCCC(C#N)(c3ccccc3)C(C)C)CC2)cc1 (stereo not drawn) [Example 45, 1-[(4-Cyano-5-methyl-4-phenyl)hexyl]-4-[2-(4-methylthiophenoxy)ethyl]piperazine]

Same assay, conditions: rat cerebral cortex synaptosome, fura 2, KCl stimulation, compound incubated 10 minutes; Hydrochloride

IC50 | Structure (SMILES)
15 µM | CC(C)C(C#N)(CCN1CCN(CCOc2ccc(F)cc2)CC1)c1ccccc1 (single isomer, unassigned; (+)) [Example 78, (+)-1-[(3-Cyano-4-methyl-3-phenyl)pentyl]-4-[2-(4-fluorophenoxyl)ethyl]piperazine Hydrochloride]
7.5 µM | CC(C)C(C#N)(CCN1CCN(CCOc2ccc(F)cc2)CC1)c1ccccc1 (single isomer, unassigned; (-)) [Example 77, (−)-1-[(3-Cyano-4-methyl-3-phenyl)pentyl]-4-[2-(4-fluorophenoxyl)ethyl]piperazine Hydrochloride]
